Read-outs that look alike come from different tables or passages of the source.
Columns and labels:
[1] = system: cancer cell lines (A2780, MDA-MB-231, HCT116); parameters: method as in PMID 32354569; conditions: cited from earlier work
[2] = system: Escherichia coli (E. coli) CCM 3988; test: Antimicrobial activity, macrodilution method (growth by A590); type: cell-based; conditions: Bacteria, MHB, 37 °C, DMSO max 1.0 vol. %, read-out: IC50 E. coli
Description: (§1) The antimicrobial activities of gallium(III) complexes GaPic, GaDpic, GaChel, GaCldpic, free ligands (HPic, H2Dpic, H2Chel, H2Cldpic) and positive controls (cefoxitin (C), ampicillin (A) and piperacillin (P)) were evaluated by macrodilution method using G^+ bacteria (Firmicutes) Staphylococcus aureus (S. aureus) CCM 3953 (Czech Collection of Microorganisms), G^− bacteria (γ-proteobacteria) Escherichia coli (E. coli) CCM 3988, Pseudomonas aeruginosa (P. aeruginosa) CCM 1959 (Czech Collection of Microorganisms) and the yeast Candida parapsilosis (C. parapsilosis) ATCC 22019 (American type culture collection). Cultures of bacteria (in Mueller–Hinton broth, MHB) and yeasts (in Sabouraud’s growth medium, SB) were incubated under shaking (250 rpm) at 37 °C. The growth of bacteria and yeasts was evaluated by measuring the absorbance of the growing cultures (A590) until the cultures reached the stationary growth phase. The effects of gallium(III) complexes on the growth of filamentous fungi Rhizopus oryzae (R. oryzae) CCM F-8284, Alternaria alternata (A. alternata) CCM F-128 and Microsporum gypseum (M. gypseum) CCM F-8342 (Czech Collection of Microorganisms) were observed by macrodilution method on solidified potato-dextrose growth medium (PDA). During culturing, the diameters of growing fungal colonies were measured at regular intervals. Briefly, the antimicrobial activity (bacteria and yeasts) gallium(III) complexes/ ligands were added to the microbial culture at the beginning of the cultivation-to the lag phase. Pure gallium(III) complexes/ligands were dissolved in DMSO. The final concentration of DMSO never exceeded 1.0 vol. % neither in control nor treated samples. Concentration of gallium(III) complexes used in experimental work for evaluation of antimicrobial activity was used in the range of 0.05–2 mM, for the free ligands in the range of 0.5–2.0 mM in all experiments. […] The IC50 values were evaluated from toxicity curves. All the obtained results of antimicrobial activity were compared to the activity of Ga(NO3)3.

[3] = system: Pseudomonas aeruginosa (P. aeruginosa) CCM 1959; test: as above; type: cell-based; conditions: for IC50: Bacteria, MHB, 37 °C, DMSO max 1.0 vol. %, read-out: IC50 P. aeruginosa
Description: as §1

[4] = system: Staphylococcus aureus (S. aureus) CCM 3953; test: as above; type: cell-based; conditions: for IC50: Bacteria, MHB, 37 °C, DMSO max 1.0 vol. %, read-out: IC50 S. aureus
Description: as §1

[5] = system: Candida parapsilosis (C. parapsilosis) ATCC 22019; test: Antimicrobial activity, macrodilution method (yeast, growth by A590); type: cell-based; conditions: Yeast, Sabouraud's growth medium, 37 °C, read-out: IC50 C. parapsilosis
Description: as §1

[6] = system: Alternaria alternata (A. alternata) CCM F-128; test: Growth of filamentous fungi, macrodilution method on solidified PDA (colony diameter); type: cell-based; conditions: Filamentous fungi, solidified potato-dextrose growth medium, read-out: IC50 A. alternata
Description: as §1

[7] = system: Microsporum gypseum (M. gypseum) CCM F-8342; test: as above; type: cell-based; conditions: Filamentous fungi, solidified potato-dextrose growth medium, read-out: IC50 M. gypseum
Description: as §1

[8] = system: Rhizopus oryzae (R. oryzae) CCM F-8284; test: as above; type: cell-based; conditions: solidified potato-dextrose growth medium, read-out: IC50 R. oryzae
Description: as §1

[9] = system: any model microorganism; test: Antimicrobial activity, macrodilution method, all model microorganisms together; type: cell-based; conditions: free ligands, range 0.5–2.0 mM
Description: as §1, with “Cultures” for “The antimicrobial activities of gallium(III) complexes GaPic, GaDpic, GaChel, GaCldpic, free ligands (HPic, H2Dpic, H2Chel, H2Cldpic) and positive controls (cefoxitin (C), ampicillin (A) and piperacillin (P)) were evaluated by macrodilution method using G^+ bacteria (Firmicutes) Staphylococcus aureus (S. aureus) CCM 3953 (Czech Collection of Microorganisms), G^− bacteria (γ-proteobacteria) Escherichia coli (E. coli) CCM 3988, Pseudomonas aeruginosa (P. aeruginosa) CCM 1959 (Czech Collection of Microorganisms) and the yeast Candida parapsilosis (C. parapsilosis) ATCC 22019 (American type culture collection). Cultures”

[10] = system: A2058 (human metastatic melanoma); test: MTS antiproliferative assay
Description: (§2) Cell culture the cell lines A2058 (human metastatic melanoma), BLM (human metastatic melanoma), HCT116 (human colorectal carcinoma), HeLa (human cervical adenocarcinoma), Jurkat (human leukaemic T cell lymphoma). […] Cells were maintained in standard conditions with an atmosphere containing 5% CO2 at 37 °C.
(§3) The antiproliferative activity of Ga(III) complexes GaPic, GaDpic, GaChel, GaCldpic, free ligands (HPic, H2Dpic, H2Chel, H2Cldpic) and cisplatin (cisPt) were evaluated by colorimetric microculture MTS (3-(4,5-dimethylthiazol-2-yl)-5-(3-carboxymethoxyphenyl)-2-(4-sulfophenyl)-2H tetrazolium) assay (Promega, Madison, WI, USA). Cancer and non-cancer cells were seeded at density 5 × 10^3 cells/well in 96-well polystyrene microplates. Twenty-four hours after cell seeding, different concentrations (1.0—100.0 µM) of the compounds were tested. After 72 h of incubation, 10 µL of MTS was added to each well. After an additional 2 h, cell proliferation was evaluated by measuring of absorbance at wavelength 490 nm using the automated Cytation™ 3 Cell Imaging Multi-Mode Reader (Biotek, Winooski, VT, USA). The absorbance of control wells was taken as 100%, and the results were expressed as a percent of untreated control. IC50 values were calculated from MTS analyses.

[11] = system: HCT116 (human colorectal carcinoma); test: MTS antiproliferative assay
Description: as §2, §3

[12] = system: HeLa (human cervical adenocarcinoma); test: MTS antiproliferative assay
Description: as §2, §3

[13] = system: Jurkat (human leukaemic T cell lymphoma); test: MTS antiproliferative assay
Description: as §2, §3

[14] = system: MDA-MB-231 (human mammary gland adenocarcinoma); test: MTS antiproliferative assay
Description: as §2, §3

[15] = system: PaTu 8902 (human pancreatic adenocarcinoma); test: MTS antiproliferative assay
Description: as §2, §3

[16] = MTS antiproliferative assay (non-cancer cells); conditions: human
Description: as §2, §3

[17] = system: HepG2 (human liver cancer cell line); test: MTT cell viability test; type: cell-based; conditions: after 48 h
Description: Prior to each experiment, cell viability was determined using an automated cell counter (Countess II FL, Thermo Fisher Scientific, USA). 50 μl of the HepG2 cell suspension was transferred into new tube and 12.5 μl of trypan blue was added. After one minute, 10 μl was taken from the prepared suspension to determine the number of viable cells in 1 ml. The automated cell counter determined the total number of viable cells and the percentage of viability. […] Cells (2 × 10^4/200 μl) were incubated in 96-well microtiter plates for 24 and 48 h in the presence of metal complexes, picolinic acid, and gallium(III) nitrate, at 37 °C in humified atmosphere with 5% CO2. The cells were centrifuged for 10 min at 2500 rpm and 20 °C, supernatant was removed and 180 μl of fresh serum-free medium was added. Then 10 μl of MTT solution with a concentration of 5 mg/ml was added and cells were incubated for next 2–3 h in the dark until a precipitate formed. After centrifugation and removal of supernatant 150 μl of DMSO was added to the cells to dissolve the precipitate. Absorbance at 540 nm was measured using a spectrophotometer.

[18] = system: HepG2 cells; parameters: method as in PMID 16827101; conditions: after 6 days of treatment; read-out: antiproliferative effect IC50; cited from earlier work
[19] = system: human dermal fibroblasts (HDF); test: in vitro
Description: as §2, §3

[20] = biological target: T1, bovine serum albumin (BSA) (Bos taurus, UniProt P02769); test: BSA fluorescence quenching (Stern-Volmer); type: binding; conditions: 0.01 M PBS buffer pH 7.4, 25 °C, λex = 280 nm
T1 construct: purchased Sigma-Aldrich Chemicals
T1 sequence (P02769 25-607): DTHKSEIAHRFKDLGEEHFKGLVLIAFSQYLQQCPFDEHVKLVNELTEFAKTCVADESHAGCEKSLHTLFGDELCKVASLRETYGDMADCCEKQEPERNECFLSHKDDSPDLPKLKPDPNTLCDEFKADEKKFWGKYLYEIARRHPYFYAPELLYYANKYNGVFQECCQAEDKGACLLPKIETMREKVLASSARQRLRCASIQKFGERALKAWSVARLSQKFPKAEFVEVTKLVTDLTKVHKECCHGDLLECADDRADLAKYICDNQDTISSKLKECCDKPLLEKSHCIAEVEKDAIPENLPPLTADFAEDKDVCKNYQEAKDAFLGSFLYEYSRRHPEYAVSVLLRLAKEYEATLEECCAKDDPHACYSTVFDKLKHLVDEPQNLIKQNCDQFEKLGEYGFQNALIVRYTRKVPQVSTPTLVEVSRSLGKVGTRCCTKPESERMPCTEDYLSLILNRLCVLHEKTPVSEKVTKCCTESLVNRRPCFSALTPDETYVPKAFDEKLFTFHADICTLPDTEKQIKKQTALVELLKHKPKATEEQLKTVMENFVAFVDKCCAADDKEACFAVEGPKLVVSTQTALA
Description: Fluorescence measurements were carried out on a Varian Cary Eclipse spectrofluorometer. The quenching studies of BSA with the Ga(III) complexes were investigated to determine whether they were able to quench fluorescence of BSA. All measurements were performed at 25 °C in 0.01 M PBS buffer (pH 7.4). The fluorescence spectra were measured at an excitation wavelength of 280 nm, with a slit width of 10 nm for the excitation and emission beams, in the range of 300–450 nm and analysed according to the classical Stern–Volmer Equation: F0/F=1+KSVQ where F0 and F are the fluorescence intensities in the absence and the presence of the quencher, respectively, KSV is the Stern–Volmer constant, and [Q] is the concentration of quencher.

[21] = Complex stability in biological testing medium by time-dependent 1H NMR; type: physicochemical; conditions: 300 K, over 96 h
Description: Nuclear magnetic resonance (NMR) data were collected on a Varian VNMRS 600 spectrometer operating at 599.87 MHz for ^1H. The concentration of all samples was approximately 3 mg/0.6 mL of 1% DMSO-d6/D2O. For comparison, the spectra of pure acids were also measured, while the pH of the solution of acids was adjusted to the same value as the solution of the complexes. The chemical shifts were referenced to the TSP (3-(trimethylsilyl)propionic-2,2,3,3-d4 acid sodium salt) peak (^1H NMR 0.00 ppm). The NMR data were recorded at 300 K, with chemical shifts δ reported in parts per million and coupling constants J in Hertz. All data were analysed using MestReNova 12.0.0 (2017) software. The stability in 1% DMSO-d6/D2O was determined for all samples. […]

[22] = Pseudomonas aeruginosa, CCM1959
[23] = Lodderomyces parapsilosis, ATCC22019
[24] = Homo sapiens, A2058, 72 h, read-out: Cytotoxic activity IC50 A2058
[25] = Homo sapiens, HCT-116, 72 h, read-out: Cytotoxic activity IC50 HCT116
[26] = Homo sapiens, HeLa, 72 h, read-out: Cytotoxic activity IC50 HeLa
[27] = Homo sapiens, Jurkat, 72 h, read-out: Cytotoxic activity IC50 Jurkat
[28] = Homo sapiens, MDA-MB-231, 72 h, read-out: Cytotoxic activity IC50 MDA-MB-231
[29] = Homo sapiens, PaTu 8902, 72 h, read-out: Cytotoxic activity IC50 PaTu 8902

| SMILES | IC50 ([2]; Escherichia coli, CCM3988) [µM] | IC50 [3, 22] [µM] | IC50 ([4]; Staphylococcus aureus, CCM3953) [µM] | IC50 [5, 23] [µM] | IC50 ([6]; Alternaria alternata) [µM] | IC50 ([7]; Nannizzia gypsea) [µM] | IC50 ([8]; Rhizopus arrhizus) [µM] | effect on the growth of any model microorganism [9] | IC50 [10, 24] [µM] | IC50 [11, 25] [µM] | IC50 [12, 26] [µM] | IC50 [13, 27] [µM] | IC50 [14, 28] [µM] | IC50 [15, 29] [µM] | decrease in cell viability of HepG2 ([17]; 100 μM) [%] | also measured |
| --- | --- | --- | --- | --- | --- | --- | --- | --- | --- | --- | --- | --- | --- | --- | --- | --- |
| CO.[Ga+3].[O-]c1ccc(Cl)c2cccnc12.[O-]c1ccc(Cl)c2cccnc12.[O-]c1ccc(Cl)c2cccnc12 [[Ga(ClQ)3]⋅MeOH] |  |  |  |  |  |  |  |  |  |  |  |  |  |  |  | activity of the Ga(III) complex relative to the activity of H-ClQ [1]: at least 2.5 times |
| O=C(O)c1cc(Cl)cc(C(=O)O)n1 [H2Cldpic, 4-chlorodipicolinic acid] | > 500 | > 500 | > 500 | > 500 | > 500 | > 500 | > 500 | did not affect the growth | > 200 | > 200 | > 200 | > 200 | > 200 | > 200 |  | IC50 at 72 h ([16]; human dermal fibroblasts (HDF)): > 200 µM |
| O=C([O-])c1ccccn1.[Ag+] [AgPic] |  |  |  |  |  |  |  |  |  |  |  |  |  |  | 40 | decrease in cell viability of HepG2 ([17]; 75 μM): 45% |
| Cc1occc(=O)c1[O-].Cc1occc(=O)c1[O-].Cc1occc(=O)c1[O-].[Ga+3] [GaM, Ga(III) maltolate] |  |  |  |  |  |  |  |  |  |  |  |  |  |  |  | IC50 [18]: 25 to 35 µM |
| O.O=C([O-])c1ccccn1.O=C([O-])c1ccccn1.O=C([O-])c1ccccn1.[Ga+3] [GaPic, [Ga(Pic)3]·H2O] |  |  |  |  |  |  |  |  |  |  |  |  |  |  | 28 | IC50 [2]: > 2000 µM; IC50 [3]: 50 µM; MIC100 (MIC) P. aeruginosa ([3]; growth fully inhibited (100%)): 500 µM; IC50 [4]: 2000 µM; inhibition of S. aureus growth ([4]; complex at 2 mM): 50%; IC50 [5]: > 2000 µM; IC50 [6]: > 2000 µM; IC50 [7]: > 2000 µM; IC50 [8]: > 2000 µM; IC50 [10]: 187 ± 12.2 µM; IC50 [11]: 995 ± 27.5 µM; IC50 [12]: 1530 ± 108 µM; IC50 [13]: 175 ± 47.7 µM; IC50 [14]: 152 ± 74.3 µM; IC50 [15]: 271 ± 34.3 µM; IC50 [19]: 231 ± 23.8 µM; Stern–Volmer binding constant Ksv BSA [20]: 46700 M⁻¹; stability in 1% DMSO-d6/D2O solution [21]: does not decompose |
| O=C(O)c1cc(O)cc(C(=O)O)n1 [H2Chel, chelidamic acid] | > 500 | > 500 | > 500 | > 500 | > 500 | > 500 | > 500 | did not affect the growth | > 200 | > 200 | > 200 | > 200 | > 200 | > 200 |  | IC50 at 72 h [16]: > 200 µM |

Source: publication PMC10415494, “Ga(III) pyridinecarboxylate complexes: potential analogues of the second generation of therapeutic Ga(III) complexes?” (Journal of Biological Inorganic Chemistry, 2023)
